Results from ChEMBL document CHEMBL4818986, “Recent progress on HDAC inhibitors with dual targeting capabilities for cancer treatment” (Eur J Med Chem, 2020).

Experiments:
4T1 = test: Antiproliferative activity against mouse 4T1 cells by EdU alexa fluor high-throughput imaging method; format: functional, cell-based
THP-1 = test: Antiproliferative activity against human THP1 incubated for 72 hrs by Trypan Blue reagent based assay; format: functional, cell-based; settings: THP-1, 72 h
Histone deacetylase [1] = test: Inhibition of HDAC in human K562 cells using Boc-K(Ac)-AMC as substrate preincubated for 3 hrs followed by substrate addition and measured after 3 hrs by fluorescence method; format: cell-based
[2] = target: T1, Histone-lysine N-methyltransferase EHMT2 (Homo sapiens, UniProt Q96KQ7); test: Inhibition of G9a in human MDA-MB-231 cells assessed as effect on H3K9Me2 levels incubated for 48 hrs by immunofluorescence in-cell western assay; format: cell-based
T1 sequence (Q96KQ7 whole entry): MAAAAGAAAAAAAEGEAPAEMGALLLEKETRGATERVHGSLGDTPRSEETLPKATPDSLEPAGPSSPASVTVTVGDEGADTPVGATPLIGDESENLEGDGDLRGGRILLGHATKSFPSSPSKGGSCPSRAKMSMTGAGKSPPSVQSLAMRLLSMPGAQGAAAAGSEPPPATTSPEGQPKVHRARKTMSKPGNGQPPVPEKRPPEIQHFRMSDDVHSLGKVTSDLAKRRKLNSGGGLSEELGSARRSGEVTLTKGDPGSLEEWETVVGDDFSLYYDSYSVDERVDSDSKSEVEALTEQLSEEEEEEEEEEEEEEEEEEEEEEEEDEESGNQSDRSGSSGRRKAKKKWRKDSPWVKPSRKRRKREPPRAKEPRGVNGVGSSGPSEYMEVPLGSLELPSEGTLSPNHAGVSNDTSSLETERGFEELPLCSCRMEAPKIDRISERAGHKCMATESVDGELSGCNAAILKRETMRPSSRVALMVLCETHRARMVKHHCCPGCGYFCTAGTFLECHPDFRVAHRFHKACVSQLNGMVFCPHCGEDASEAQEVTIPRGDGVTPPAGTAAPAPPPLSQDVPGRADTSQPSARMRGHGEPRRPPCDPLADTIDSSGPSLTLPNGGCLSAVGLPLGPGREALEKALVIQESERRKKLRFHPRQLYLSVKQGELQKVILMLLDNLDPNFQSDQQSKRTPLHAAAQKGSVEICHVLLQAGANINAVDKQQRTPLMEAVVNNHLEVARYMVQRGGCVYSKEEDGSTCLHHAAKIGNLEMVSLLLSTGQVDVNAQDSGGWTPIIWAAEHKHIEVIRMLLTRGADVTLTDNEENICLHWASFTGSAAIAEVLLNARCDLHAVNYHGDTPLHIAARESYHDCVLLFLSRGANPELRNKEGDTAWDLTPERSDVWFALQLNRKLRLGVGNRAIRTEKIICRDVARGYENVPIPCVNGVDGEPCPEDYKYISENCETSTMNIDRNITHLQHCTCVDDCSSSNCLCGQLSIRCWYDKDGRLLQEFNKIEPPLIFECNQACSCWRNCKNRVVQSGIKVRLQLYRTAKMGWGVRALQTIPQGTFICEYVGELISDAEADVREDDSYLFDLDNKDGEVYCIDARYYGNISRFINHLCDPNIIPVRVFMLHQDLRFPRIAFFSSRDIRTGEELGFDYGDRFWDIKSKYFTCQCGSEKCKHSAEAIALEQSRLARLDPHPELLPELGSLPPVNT

CAPAN-1 = test: Antiproliferative activity against human CAPAN 1 cells incubated for 72 hrs by CCK8 assay; format: functional, cell-based; settings: CAPAN-1, 72 h
Histone deacetylase 1 [3] = target: T2, Histone deacetylase 1 (Homo sapiens, UniProt Q13547); test: Inhibition of human HDAC1 expressed in baculovirus expression system by fluorescence method
T2 sequence (Q13547 whole entry): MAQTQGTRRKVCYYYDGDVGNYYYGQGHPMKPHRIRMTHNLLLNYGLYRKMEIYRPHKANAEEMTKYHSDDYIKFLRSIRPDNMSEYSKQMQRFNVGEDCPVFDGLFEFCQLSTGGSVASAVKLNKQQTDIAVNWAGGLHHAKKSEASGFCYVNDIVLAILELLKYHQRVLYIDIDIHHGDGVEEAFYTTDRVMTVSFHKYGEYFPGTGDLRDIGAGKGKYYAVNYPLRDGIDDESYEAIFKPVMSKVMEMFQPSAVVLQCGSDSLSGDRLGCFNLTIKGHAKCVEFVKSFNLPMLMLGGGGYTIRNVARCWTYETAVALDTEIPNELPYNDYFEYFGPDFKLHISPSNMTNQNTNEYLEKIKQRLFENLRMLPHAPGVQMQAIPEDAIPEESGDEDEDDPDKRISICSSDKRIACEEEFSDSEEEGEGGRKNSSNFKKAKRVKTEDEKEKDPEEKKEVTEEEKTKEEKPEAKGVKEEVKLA

T98G = test: Antiproliferative activity against human T98G cells assessed as reduction in cell viability incubated for 72 hrs by MTT assay; format: functional, cell-based
U-251 = test: Antiproliferative activity against human U251 cells assessed as reduction in cell viability incubated for 72 hrs by MTT assay; format: functional, cell-based; settings: U-251, 72 h
U-87 MG = test: Antiproliferative activity against human U87 cells assessed as reduction in cell viability incubated for 72 hrs by MTT assay; format: functional, cell-based, U-87MG ATCC
[4] = target: T3, Protein deacetylase HDAC6 (Homo sapiens, UniProt Q9UBN7); test: Inhibition of HDAC6 (unknown origin)
T3 sequence (Q9UBN7 whole entry): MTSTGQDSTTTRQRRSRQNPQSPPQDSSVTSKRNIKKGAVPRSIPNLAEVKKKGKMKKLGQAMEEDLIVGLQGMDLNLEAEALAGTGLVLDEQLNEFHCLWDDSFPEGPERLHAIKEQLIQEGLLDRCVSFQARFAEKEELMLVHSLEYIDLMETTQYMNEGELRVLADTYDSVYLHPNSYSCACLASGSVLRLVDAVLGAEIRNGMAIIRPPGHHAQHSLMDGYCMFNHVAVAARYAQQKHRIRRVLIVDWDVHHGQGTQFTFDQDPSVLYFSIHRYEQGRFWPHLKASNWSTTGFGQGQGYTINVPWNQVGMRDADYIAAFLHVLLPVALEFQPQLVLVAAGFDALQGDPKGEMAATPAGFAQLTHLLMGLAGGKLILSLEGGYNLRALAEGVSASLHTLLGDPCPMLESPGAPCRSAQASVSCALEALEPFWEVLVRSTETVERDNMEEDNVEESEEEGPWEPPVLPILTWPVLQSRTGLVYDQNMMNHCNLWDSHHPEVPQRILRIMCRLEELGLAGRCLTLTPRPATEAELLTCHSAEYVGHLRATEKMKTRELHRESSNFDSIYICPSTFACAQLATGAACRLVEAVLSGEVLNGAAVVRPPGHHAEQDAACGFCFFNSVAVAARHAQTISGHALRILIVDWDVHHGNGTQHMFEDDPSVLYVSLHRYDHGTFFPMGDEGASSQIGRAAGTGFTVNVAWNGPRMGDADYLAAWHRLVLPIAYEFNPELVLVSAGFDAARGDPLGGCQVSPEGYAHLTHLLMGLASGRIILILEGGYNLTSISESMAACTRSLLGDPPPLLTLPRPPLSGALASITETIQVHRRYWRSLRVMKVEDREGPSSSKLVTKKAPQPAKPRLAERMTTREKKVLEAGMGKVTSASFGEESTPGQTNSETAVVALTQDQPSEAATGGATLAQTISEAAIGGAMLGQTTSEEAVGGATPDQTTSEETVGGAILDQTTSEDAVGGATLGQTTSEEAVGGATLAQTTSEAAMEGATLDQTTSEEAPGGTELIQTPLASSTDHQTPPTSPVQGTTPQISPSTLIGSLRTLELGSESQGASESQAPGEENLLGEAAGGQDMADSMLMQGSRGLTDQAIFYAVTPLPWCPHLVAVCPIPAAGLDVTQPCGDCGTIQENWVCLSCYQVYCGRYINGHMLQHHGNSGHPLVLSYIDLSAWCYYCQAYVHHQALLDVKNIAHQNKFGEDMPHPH

A549 [5] = test: Antiproliferative activity against human A549 cells; format: functional, cell-based
Histone deacetylase 1 [6] = target: T2, Histone deacetylase 1; test: Inhibition of HDAC1 (unknown origin)
[7] = target: T4, Epidermal growth factor receptor (Homo sapiens, UniProt P00533); test: Inhibition of EGFR (unknown origin)
T4 sequence (P00533 whole entry): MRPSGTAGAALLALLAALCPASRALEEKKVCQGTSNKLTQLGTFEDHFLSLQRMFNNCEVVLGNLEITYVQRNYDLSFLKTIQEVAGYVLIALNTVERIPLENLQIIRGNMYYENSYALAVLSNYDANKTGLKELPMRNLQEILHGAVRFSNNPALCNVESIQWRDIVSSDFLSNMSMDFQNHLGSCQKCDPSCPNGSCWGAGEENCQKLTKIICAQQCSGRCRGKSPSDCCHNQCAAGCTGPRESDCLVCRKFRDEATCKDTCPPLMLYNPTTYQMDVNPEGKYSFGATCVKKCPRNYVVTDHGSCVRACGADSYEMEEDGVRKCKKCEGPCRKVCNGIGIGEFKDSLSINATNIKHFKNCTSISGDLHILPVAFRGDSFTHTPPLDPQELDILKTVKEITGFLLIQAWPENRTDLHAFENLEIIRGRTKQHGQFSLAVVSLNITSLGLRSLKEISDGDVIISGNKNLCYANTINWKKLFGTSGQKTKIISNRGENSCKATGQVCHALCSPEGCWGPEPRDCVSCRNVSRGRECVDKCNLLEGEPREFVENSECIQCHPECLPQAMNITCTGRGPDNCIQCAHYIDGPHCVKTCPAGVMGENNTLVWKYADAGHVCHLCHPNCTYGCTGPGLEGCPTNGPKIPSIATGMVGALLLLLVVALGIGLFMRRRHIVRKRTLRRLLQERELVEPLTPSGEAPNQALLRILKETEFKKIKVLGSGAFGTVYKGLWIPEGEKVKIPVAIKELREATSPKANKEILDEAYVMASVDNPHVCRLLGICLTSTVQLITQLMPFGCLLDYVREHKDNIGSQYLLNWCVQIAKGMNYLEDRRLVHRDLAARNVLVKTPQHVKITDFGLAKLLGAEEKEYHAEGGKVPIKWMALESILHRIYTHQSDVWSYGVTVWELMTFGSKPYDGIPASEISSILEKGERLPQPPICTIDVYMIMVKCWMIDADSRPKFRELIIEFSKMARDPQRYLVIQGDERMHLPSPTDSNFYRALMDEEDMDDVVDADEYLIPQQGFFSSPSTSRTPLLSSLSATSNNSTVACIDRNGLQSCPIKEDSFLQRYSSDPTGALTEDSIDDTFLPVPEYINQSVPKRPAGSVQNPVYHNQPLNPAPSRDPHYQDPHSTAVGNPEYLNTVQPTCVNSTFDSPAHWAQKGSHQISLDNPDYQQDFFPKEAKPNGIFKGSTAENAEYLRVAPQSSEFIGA

[8] = target: Cyclin-dependent kinase 4 (Homo sapiens, UniProt P11802); test: Inhibition of CDK4 (unknown origin)
Chain of Cyclin-dependent kinase 4 (P11802 whole entry): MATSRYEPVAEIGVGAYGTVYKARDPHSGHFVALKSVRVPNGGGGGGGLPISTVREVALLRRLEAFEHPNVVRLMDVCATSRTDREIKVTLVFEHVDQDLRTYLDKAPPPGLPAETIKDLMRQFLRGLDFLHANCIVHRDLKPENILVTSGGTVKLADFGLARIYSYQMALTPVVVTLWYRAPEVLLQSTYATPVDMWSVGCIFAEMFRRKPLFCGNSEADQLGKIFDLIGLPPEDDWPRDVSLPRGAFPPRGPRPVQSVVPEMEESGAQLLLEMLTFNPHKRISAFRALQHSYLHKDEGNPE

[9] = Inhibition of human SCC-25 cell metabolism incubated for 72 hrs by CCK8 assay; format: functional; settings: SCC-25, 72 h
MDA-MB-468 = test: Antiproliferative activity against human MDA-MB-468 cells incubated for 72 hrs by MTT assay; format: functional, cell-based; settings: MDA-MB-468, 72 h
KG-1 = test: Antiproliferative activity against human KG-1 cells incubated for 72 hrs by MTT assay; format: functional, cell-based; settings: KG-1, 72 h
A549 [10] = test: Antiproliferative activity against human A549 cells incubated for 72 hrs by MTT assay; format: functional, cell-based; settings: A549, 72 h
Histone deacetylase [11] = test: Inhibition of HDAC in human HeLa cell nuclear extracts using Boc-Lys (acetyl)-AMC as substrate preincubated for 5 mins followed by substrate addition and measured after 30 mins by fluorescence based assay
[12] = target: T4, Epidermal growth factor receptor; test: Inhibition of EGFR (unknown origin) incubated for 40 mins by kinase-glo plus luminescence assay
Histone deacetylase 1 [13] = target: T2, Histone deacetylase 1; test: Inhibition of HDAC1 (unknown origin) using Ac-peptide as substrate in preincubated for 15 mins followed by substrate addition and measured after 60 mins by fluorescence method
[14] = target: DNA (cytosine-5)-methyltransferase 1 (Homo sapiens, UniProt P26358); test: Inhibition of DNMT1 (unknown origin) using poly(dI-dC)-poly(dI-dC as substrate in presence of [3H-SAM] preincubated for 15 mins followed by substrate and [3H-SAM] addition and measured after 120 mins by liquid scintillation counting method
Chain of DNA (cytosine-5)-methyltransferase 1 (P26358 whole entry): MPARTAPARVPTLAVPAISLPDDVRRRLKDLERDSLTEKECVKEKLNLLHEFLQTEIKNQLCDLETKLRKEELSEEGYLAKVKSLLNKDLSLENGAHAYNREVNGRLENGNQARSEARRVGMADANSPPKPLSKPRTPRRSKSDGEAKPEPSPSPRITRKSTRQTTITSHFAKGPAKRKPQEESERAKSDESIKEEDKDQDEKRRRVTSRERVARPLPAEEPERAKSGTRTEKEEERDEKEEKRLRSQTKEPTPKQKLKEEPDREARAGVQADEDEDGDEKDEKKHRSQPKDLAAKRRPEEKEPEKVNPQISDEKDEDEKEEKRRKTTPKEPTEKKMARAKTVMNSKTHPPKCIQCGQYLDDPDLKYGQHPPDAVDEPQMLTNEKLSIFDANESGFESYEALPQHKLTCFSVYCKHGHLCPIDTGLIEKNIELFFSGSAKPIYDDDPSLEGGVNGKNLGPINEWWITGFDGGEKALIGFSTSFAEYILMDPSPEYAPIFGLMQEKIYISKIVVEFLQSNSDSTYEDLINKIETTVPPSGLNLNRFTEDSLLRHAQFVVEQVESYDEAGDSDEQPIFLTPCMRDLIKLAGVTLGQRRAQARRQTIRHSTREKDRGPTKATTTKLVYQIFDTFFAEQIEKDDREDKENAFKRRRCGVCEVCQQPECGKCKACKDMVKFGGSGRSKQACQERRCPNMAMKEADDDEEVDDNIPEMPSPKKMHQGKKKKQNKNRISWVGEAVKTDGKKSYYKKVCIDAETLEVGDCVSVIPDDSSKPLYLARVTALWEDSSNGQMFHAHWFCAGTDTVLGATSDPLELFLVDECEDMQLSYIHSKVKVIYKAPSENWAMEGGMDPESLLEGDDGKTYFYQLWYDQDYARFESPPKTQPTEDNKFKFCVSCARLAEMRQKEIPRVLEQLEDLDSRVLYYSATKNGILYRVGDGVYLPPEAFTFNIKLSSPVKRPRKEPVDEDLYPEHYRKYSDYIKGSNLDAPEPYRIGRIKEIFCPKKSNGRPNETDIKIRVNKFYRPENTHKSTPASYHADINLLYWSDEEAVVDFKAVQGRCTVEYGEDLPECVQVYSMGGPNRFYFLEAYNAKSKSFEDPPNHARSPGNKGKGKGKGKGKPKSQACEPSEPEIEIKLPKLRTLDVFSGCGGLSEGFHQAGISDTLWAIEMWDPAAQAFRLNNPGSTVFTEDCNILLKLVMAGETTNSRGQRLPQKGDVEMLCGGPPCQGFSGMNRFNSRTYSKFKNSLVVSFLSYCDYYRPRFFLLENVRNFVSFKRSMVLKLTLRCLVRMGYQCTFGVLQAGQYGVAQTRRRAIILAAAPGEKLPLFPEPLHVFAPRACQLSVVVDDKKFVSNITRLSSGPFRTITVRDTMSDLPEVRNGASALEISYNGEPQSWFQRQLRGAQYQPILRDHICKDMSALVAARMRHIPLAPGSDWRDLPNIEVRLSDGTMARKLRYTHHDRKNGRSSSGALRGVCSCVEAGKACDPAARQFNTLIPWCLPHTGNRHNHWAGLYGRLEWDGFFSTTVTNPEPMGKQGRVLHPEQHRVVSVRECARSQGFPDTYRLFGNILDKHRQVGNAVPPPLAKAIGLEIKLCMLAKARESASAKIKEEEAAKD

[15] = target: DNA (cytosine-5)-methyltransferase 3A (Homo sapiens, UniProt Q9Y6K1); test: Inhibition of DNMT3A (unknown origin) using biotinylated DNA oligonucleotides as substrate in presence of [3H-SAM] preincubated for 15 mins followed by substrate and [3H-SAM] addition and measured after 4 hrs by liquid scintillation counting method
Chain of DNA (cytosine-5)-methyltransferase 3A (Q9Y6K1 whole entry, looked up): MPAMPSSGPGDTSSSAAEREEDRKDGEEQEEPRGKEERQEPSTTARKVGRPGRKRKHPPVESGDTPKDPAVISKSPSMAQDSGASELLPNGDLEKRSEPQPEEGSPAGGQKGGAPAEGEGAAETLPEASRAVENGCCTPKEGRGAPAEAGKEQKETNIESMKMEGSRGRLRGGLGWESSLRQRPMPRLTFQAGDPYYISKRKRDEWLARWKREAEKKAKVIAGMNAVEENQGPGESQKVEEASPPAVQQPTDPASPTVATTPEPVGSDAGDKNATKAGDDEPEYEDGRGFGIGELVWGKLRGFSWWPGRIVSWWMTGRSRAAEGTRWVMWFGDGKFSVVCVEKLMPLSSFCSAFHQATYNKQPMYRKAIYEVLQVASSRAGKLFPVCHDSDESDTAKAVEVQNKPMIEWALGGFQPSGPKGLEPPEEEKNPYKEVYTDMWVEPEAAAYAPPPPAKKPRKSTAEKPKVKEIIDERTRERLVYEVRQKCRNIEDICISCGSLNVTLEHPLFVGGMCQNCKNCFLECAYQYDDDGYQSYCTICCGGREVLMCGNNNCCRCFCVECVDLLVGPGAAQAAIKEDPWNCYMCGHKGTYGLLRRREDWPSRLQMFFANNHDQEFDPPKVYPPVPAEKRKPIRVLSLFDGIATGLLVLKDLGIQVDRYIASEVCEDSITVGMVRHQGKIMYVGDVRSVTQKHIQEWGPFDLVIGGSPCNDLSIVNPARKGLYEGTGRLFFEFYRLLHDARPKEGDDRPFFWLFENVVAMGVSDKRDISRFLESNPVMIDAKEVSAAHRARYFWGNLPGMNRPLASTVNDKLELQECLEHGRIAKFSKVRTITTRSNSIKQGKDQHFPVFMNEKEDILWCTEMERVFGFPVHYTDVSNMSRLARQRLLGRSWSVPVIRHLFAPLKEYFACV

[16] = target: Class 1 histone deacetylase (Homo sapiens, UniProt Q13547+O15379+Q92769+Q9BY41); test: Inhibition of HDAC class1 (unknown origin); format: protein assay

`CCC(CC)(c1ccc(OCC(=O)NO)cc1)c1ccc(OCC(O)C(C)(C)C)c(C)c1` (centres undefined) gave an IC50 (4T1) of 10000 nM.
For `Cc1noc(C)c1-c1ccc2c(c1)c(Cc1ccc(F)cc1)cn2CCCCCCC(=O)NO`, the IC50 (THP-1) was 15500 nM.
Compound `COc1ccc2c(NC3CCN(Cc4ccccc4)CC3)nc(NCCNC(=O)CCCCC(=O)NO)nc2c1` has an IC50 (Histone deacetylase [1]) of 5700 nM and an IC50 [2] of 7140 nM.
Work on `Cc1sc2c(c1C)C(c1ccc(Cl)cc1)=N[C@@H](CC(=O)Nc1ccc(C(=O)NO)cc1)c1nnc(C)n1-2` yielded an IC50 (CAPAN-1) of 150 nM and an IC50 (Histone deacetylase 1 [3]) of 21 nM.
`O=C(CCCCCNC(=O)c1cc(O)c2c(c1)C(=O)c1cccc(O)c1C2=O)NO` gave an IC50 (T98G) of 5500 nM, an IC50 (U-251) of 7000 nM and an IC50 (U-87 MG) of 8000 nM.
For `O=C(CCCCCCn1cc(-c2ccc3ncnc(Nc4ccc(Br)cc4F)c3c2)nn1)NO`, the IC50 [4] was 4.3 nM, the IC50 (A549 [5]) was 710 nM and the IC50 (Histone deacetylase 1 [6]) was 1.1 nM. It also gave an IC50 [7] of 10.3 nM.
In the case of `Cc1nc2ccc(-c3nc(Nc4ccc(NC(=O)CCCCCC(=O)NO)cc4)ncc3F)cc2n1C(C)C`, the IC50 [8] is reported as 1.2 nM, the IC50 (Histone deacetylase 1 [6]) is reported as 17 nM and the IC50 [9] is reported as 126 nM.
`COc1cc(NC(=O)CCCCCCCCCCC(=O)NO)ccc1Nc1nccc(-c2cn(C)c3ccccc23)n1` gave an IC50 (MDA-MB-468) of 230 nM, an IC50 (KG-1) of 240 nM and an IC50 (A549 [10]) of 2190 nM. For the same compound, the IC50 (Histone deacetylase [11]) was 85 nM and the IC50 [12] was 5700 nM.
Compound `O=C(NO)C1CCN(CC(O)COC(Cn2c3ccccc3c3ccccc32)Cn2c3ccccc3c3ccccc32)CC1` (centres undefined) has an IC50 (Histone deacetylase 1 [13]) of 4160 nM, an IC50 [14] of 2020 nM and an IC50 [15] of 930 nM.
For `C#Cc1cccc(Nc2ncnc3cc(OCCOC)c(OCCOC)cc23)c1` [ERLOTINIB], the IC50 (A549 [5]) was 16800 nM.
`C=CC(=O)Nc1cc(Nc2nccc(-c3cn(C)c4ccccc34)n2)c(OC)cc1N(C)CCN(C)C` [OSIMERTINIB] gave an IC50 (MDA-MB-468) of 1300 nM, an IC50 (KG-1) of 530 nM and an IC50 (A549 [10]) of 1970 nM.
In the case of `Cn1c(CCCCCCC(=O)NO)nc2cc(N(CCCl)CCCl)ccc21` [TINOSTAMUSTINE], the IC50 [16] is reported as 6 nM.
